# Data from ChEMBL document CHEMBL5338741, “Discovery of an In Vivo Chemical Probe for BCL6 Inhibition by Optimization of Tricyclic Quinolinones” (J Med Chem, 2023).
# Assays:
# [1] = molecular target: BCL-6/NCOR2 (Homo sapiens) (UniProt Q9Y618+P41182); details: HEK293T, time 6.0 hrs
# [2] = molecular target: B-cell lymphoma 6 protein (Homo sapiens, UniProt P41182)
# BCL-6/NCOR2 = BCL-6/NCOR2 (Homo sapiens, UniProt P41182); assay type: cell-based, HEK293T
# BCL-6/NCOR2 (Homo sapiens), sequence (Q9Y618 whole entry, looked up, other chains not shown): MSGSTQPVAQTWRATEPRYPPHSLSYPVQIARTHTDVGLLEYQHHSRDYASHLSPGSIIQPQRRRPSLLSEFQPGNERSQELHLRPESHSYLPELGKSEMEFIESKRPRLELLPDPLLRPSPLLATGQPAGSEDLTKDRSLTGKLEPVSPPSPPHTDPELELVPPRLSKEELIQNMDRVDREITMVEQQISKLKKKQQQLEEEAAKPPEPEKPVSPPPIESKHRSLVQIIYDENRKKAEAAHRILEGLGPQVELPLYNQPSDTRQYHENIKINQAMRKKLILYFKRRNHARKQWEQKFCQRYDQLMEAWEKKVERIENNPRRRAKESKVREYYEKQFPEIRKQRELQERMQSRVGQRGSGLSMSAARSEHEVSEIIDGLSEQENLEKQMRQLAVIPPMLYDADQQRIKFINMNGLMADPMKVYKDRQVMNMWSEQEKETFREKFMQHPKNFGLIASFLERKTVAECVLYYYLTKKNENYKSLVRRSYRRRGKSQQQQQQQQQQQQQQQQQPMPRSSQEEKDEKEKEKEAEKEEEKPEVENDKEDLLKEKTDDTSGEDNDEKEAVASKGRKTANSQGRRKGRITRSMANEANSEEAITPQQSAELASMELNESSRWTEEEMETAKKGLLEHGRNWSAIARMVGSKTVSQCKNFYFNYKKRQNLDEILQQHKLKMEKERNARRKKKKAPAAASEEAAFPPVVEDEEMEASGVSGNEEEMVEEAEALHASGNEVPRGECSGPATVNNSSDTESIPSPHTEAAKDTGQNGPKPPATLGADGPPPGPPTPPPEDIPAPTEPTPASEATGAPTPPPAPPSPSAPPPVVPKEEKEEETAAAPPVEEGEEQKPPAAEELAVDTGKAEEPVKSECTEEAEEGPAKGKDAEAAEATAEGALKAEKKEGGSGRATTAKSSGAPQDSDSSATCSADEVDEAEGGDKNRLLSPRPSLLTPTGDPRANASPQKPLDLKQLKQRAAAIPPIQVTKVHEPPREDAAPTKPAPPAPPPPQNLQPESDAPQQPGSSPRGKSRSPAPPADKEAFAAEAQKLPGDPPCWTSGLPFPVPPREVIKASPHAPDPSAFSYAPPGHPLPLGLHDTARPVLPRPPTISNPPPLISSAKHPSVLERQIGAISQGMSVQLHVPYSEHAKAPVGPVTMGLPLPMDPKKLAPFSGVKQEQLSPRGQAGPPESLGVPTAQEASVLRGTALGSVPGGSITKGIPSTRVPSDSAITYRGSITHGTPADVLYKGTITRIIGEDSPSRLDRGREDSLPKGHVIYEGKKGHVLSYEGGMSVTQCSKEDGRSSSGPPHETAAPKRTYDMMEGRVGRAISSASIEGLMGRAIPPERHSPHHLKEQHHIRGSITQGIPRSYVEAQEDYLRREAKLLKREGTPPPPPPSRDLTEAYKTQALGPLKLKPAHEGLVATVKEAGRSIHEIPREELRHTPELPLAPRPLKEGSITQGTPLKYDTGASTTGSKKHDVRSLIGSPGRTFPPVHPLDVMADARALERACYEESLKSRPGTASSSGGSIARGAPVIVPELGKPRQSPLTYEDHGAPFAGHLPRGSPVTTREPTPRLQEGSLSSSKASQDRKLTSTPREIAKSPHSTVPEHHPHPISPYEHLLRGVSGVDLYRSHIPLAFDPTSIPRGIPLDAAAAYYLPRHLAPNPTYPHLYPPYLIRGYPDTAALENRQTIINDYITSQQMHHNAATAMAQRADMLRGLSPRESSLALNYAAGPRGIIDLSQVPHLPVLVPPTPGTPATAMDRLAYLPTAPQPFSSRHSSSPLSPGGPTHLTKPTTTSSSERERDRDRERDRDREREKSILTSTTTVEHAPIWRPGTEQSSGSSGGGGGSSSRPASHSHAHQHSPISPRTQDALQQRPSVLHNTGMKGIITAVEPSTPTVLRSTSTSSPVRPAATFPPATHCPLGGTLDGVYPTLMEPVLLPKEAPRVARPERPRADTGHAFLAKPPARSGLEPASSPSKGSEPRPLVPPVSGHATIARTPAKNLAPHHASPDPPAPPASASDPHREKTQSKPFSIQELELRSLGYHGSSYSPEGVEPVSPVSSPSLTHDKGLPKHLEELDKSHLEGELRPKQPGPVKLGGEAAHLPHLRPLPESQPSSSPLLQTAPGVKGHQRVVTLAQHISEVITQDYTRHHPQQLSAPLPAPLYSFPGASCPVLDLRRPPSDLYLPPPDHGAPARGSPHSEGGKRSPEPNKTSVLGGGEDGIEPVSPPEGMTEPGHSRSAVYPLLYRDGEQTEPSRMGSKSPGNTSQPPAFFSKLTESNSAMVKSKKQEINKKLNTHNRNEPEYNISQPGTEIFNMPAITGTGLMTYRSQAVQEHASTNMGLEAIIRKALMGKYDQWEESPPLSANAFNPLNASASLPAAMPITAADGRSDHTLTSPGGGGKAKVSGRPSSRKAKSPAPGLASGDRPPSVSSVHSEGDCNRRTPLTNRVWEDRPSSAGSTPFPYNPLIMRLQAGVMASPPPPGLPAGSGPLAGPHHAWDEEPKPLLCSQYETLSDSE
fIC50 [1] [nM],fIC90 [1] [nM],Compound,IC50 [2] [nM],IC50 (BCL-6/NCOR2) [nM],IC90 [1] [nM]
8.9,50,Cn1c(=O)c2c(c3cc(Nc4nc(N5CC(F)(F)C5)ncc4Cl)ccc31)N[C@@H](C1CC1)C(F)(F)CO2,–,–,–
–,–,CC(=O)N1C2CCC1CN(c1ncc(Cl)c(Nc3ccc4c(c3)c3c(c(=O)n4C)OCC(F)(F)[C@H](C4CC4)N3)n1)C2,1.9,41,–
–,–,CC(=O)N1CC2CCC(C1)N2c1ncc(Cl)c(Nc2ccc3c(c2)c2c(c(=O)n3C)OCC(F)(F)[C@H](C3CC3)N2)n1,0.9,26.9,–
6.8,44,Cn1c(=O)c2c(c3cc(Nc4ccnc(F)c4Cl)ccc31)N[C@@H](C1CC1)C(F)(F)CO2,–,–,–

Compound,fIC50 [1] [nM],fIC90 [1] [nM],IC50 [2] [nM],IC50 (BCL-6/NCOR2) [nM],IC90 [1] [nM]
Cn1c(=O)c2c(c3cc(Nc4nc(N5C6CCC5COC6)ncc4Cl)ccc31)N[C@@H](C1CC1)C(F)(F)CO2,143,42,–,–,3.2
